# Experimental data taken from patent publication US20200017496A1 (priority 2017, published 2020).
# Like-named read-outs stand apart in the source and are kept apart here.
# Tests used:
# Assay type in all cases: cell-based
# [1] = tested on: Klebsiella pneumoniae (KPN) isolates; experiment: MIC of compounds alone and combined with antibacterials, broth microdilution (CLSI); details: for MIC: Klebsiella pneumoniae
# Outline: (§1)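 Log-phase bacteria at a final 5·10^5 CFU/mL in cation-adjusted Mueller-Hinton broth were incubated 16-20 h at 35° C in ambient air with compound alone or with an antibacterial. MIC was the lowest concentration preventing visible growth; combination MIC of the antibacterial was read at each compound concentration.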
# [2] = tested on: Enterobacter aerogenes (EAE) isolates; experiment: as above; details: for MIC: Klebsiella aerogenes
# Outline: as §1
# [3] = tested on: Proteus mirabilis (PMI) isolates; experiment: microbe, parasite or virus in culture; details: for MIC: Proteus mirabilis, ATB alone, read-out: MIC
# Outline: as §1
compound,measurement,setting,value
"CC(C)(O/N=C(\C(=O)N[C@@H]1C(=O)N2C(C(=O)[O-])=C(C[n+]3ccccc3)CS[C@H]12)c1csc(N)n1)C(=O)O [CAZ, Ceftazidime]",MIC ATB in combination,"[1]; KPN UFR77, AF1 @ 4 μg/mL",4 mg/L
same,MIC ATB in combination,"[1]; KPN UFR77, AF1 @ 8 μg/mL",2 mg/L
same,MIC ATB in combination,"[1]; KPN UFR78, AF1 @ 8 μg/mL",32 mg/L
same,MIC ATB in combination,"[1]; KPN UFR79, AF1 @ 4 μg/mL",2 mg/L
same,MIC ATB in combination,"[1]; KPN UFR79, AF1 @ 8 μg/mL",1 mg/L
same,MIC ATB in combination,"[1]; KPN UFR80, AF1 @ 4 μg/mL",<=0.25 μg/mL
same,MIC ATB in combination,"[1]; KPN UFR80, AF1 @ 8 μg/mL",<=0.25 μg/mL
same,MIC ATB in combination,"[1]; KPN UFR81, AF1 @ 4 μg/mL",2 mg/L
same,MIC ATB in combination,"[1]; KPN UFR81, AF1 @ 8 μg/mL",0.5 mg/L
same,MIC ATB in combination,"[1]; KPN UFR215, AF1 @ 4 μg/mL",<=0.25 μg/mL
same,MIC ATB in combination,"[1]; KPN UFR215, AF1 @ 8 μg/mL",<=0.25 μg/mL
same,MIC ATB in combination,"[1]; KPN UFR216, AF1 @ 4 μg/mL",<=0.25 μg/mL
same,MIC ATB in combination,"[1]; KPN UFR216, AF1 @ 8 μg/mL",<=0.25 μg/mL
same,MIC ATB in combination,"[1]; KPN UFR217, AF1 @ 4 μg/mL",<=0.25 μg/mL
same,MIC ATB in combination,"[1]; KPN UFR217, AF1 @ 8 μg/mL",<=0.25 μg/mL
same,MIC ATB in combination,"[1]; KPN UFR219, AF1 @ 4 μg/mL",0.5 mg/L
same,MIC ATB in combination,"[1]; KPN UFR219, AF1 @ 8 μg/mL",<=0.25 μg/mL
same,MIC ATB in combination,"[1]; KPN UFR220, AF1 @ 4 μg/mL",2 mg/L
same,MIC ATB in combination,"[1]; KPN UFR220, AF1 @ 8 μg/mL",1 mg/L
same,MIC ATB in combination,"[1]; KPN UFR221, AF1 @ 4 μg/mL",0.5 mg/L
same,MIC ATB in combination,"[1]; KPN UFR221, AF1 @ 8 μg/mL",<=0.25 μg/mL
same,MIC ATB in combination,"[1]; KPN UFR222, AF1 @ 4 μg/mL",8 mg/L
same,MIC ATB in combination,"[1]; KPN UFR222, AF1 @ 8 μg/mL",4 mg/L
same,MIC ATB in combination,"[1]; KPN UFR227O, AF1 @ 4 μg/mL",2 mg/L
same,MIC ATB in combination,"[1]; KPN UFR227O, AF1 @ 8 μg/mL",1 mg/L
same,MIC,[1]; BAA1898,256 mg/L
same,MIC,"[1]; strain KPN 200327 (TEM-1, SHV-1, CTX-M-15, OXA-1), ATB alone, read-out: MIC",32 mg/L
same,MIC,"[1]; strain KPN LIB (SHV-11, OXA-48), ATB alone, read-out: MIC",0.25 mg/L
same,MIC,"[1]; strain KPN UFR22_O (TEM-1, SHV-1, OXA-48), ATB alone, read-out: MIC",2 mg/L
same,MIC,"[1]; strain KPN UFR23 (TEM-1, SHV-1, OXA-48), ATB alone, read-out: MIC",0.5 mg/L
same,MIC,"[1]; strain KPN UFR77 (CMY-2), ATB alone, read-out: MIC",32 mg/L
same,MIC,"[1]; strain KPN UFR79 (DHA-1, OXA-1), ATB alone, read-out: MIC",16 mg/L
same,MIC,"[1]; strain KPN UFR80 (SHV-11, DHA-1, OXA-1), ATB alone, read-out: MIC",0.5 mg/L
same,MIC,"[1]; strain KPN UFR221 (TEM-1, SHV-11, CTX-M-14, DHA-1), ATB alone, read-out: MIC",16 mg/L
same,MIC ATB in combination,"[2]; EAE 49469, AF1 @ 4 μg/mL",8 mg/L
same,MIC ATB in combination,"[2]; EAE 49469, AF1 @ 8 μg/mL",2 mg/L
same,MIC ATB in combination,"[2]; EAE 200261, AF1 @ 4 μg/mL",2 mg/L
same,MIC ATB in combination,"[2]; EAE 200261, AF1 @ 8 μg/mL",0.5 mg/L
same,MIC ATB in combination,"[2]; EAE UFR199, AF1 @ 4 μg/mL",1 mg/L
same,MIC ATB in combination,"[2]; EAE UFR199, AF1 @ 8 μg/mL",0.5 mg/L
same,MIC ATB in combination,"[2]; EAE UFR201, AF1 @ 4 μg/mL",0.5 mg/L
same,MIC ATB in combination,"[2]; EAE UFR201, AF1 @ 8 μg/mL",<=0.25 μg/mL
same,MIC ATB in combination,"[2]; EAE UFR202, AF1 @ 4 μg/mL",2 mg/L
same,MIC ATB in combination,"[2]; EAE UFR202, AF1 @ 8 μg/mL",1 mg/L
same,MIC ATB in combination,"[2]; EAE UFR213, AF1 @ 4 μg/mL",0.5 mg/L
same,MIC ATB in combination,"[2]; EAE UFR213, AF1 @ 8 μg/mL",0.5 mg/L
same,MIC,[2],> 256 mg/L
same,MIC,"[2]; strain EAE UFR202 (TEM-24), ATB alone, read-out: MIC",> 256 mg/L
same,MIC,"[2]; strain EAE UFR213 (TEM-24), ATB alone, read-out: MIC",> 256 mg/L
same,MIC ATB in combination,"[3]; PMI UFR82, AF1 @ 4 μg/mL",<=0.25 μg/mL
same,MIC ATB in combination,"[3]; PMI UFR82, AF1 @ 8 μg/mL",<=0.25 μg/mL
same,MIC ATB in combination,"[3]; PMI UFR120, AF1 @ 4 μg/mL",<=0.25 μg/mL
same,MIC ATB in combination,"[3]; PMI UFR120, AF1 @ 8 μg/mL",<=0.25 μg/mL
same,MIC ATB in combination,"[3]; PMI UFR121, AF1 @ 4 μg/mL",<=0.25 μg/mL
same,MIC ATB in combination,"[3]; PMI UFR121, AF1 @ 8 μg/mL",<=0.25 μg/mL
same,MIC ATB in combination,"[3]; PMI UFR122, AF1 @ 4 μg/mL",<=0.25 μg/mL
same,MIC ATB in combination,"[3]; PMI UFR122, AF1 @ 8 μg/mL",<=0.25 μg/mL
same,MIC ATB in combination,"[3]; PMI UFR123, AF1 @ 4 μg/mL",<=0.25 μg/mL
same,MIC ATB in combination,"[3]; PMI UFR123, AF1 @ 8 μg/mL",<=0.25 μg/mL
same,MIC ATB in combination,"[3]; PMI UFR124, AF1 @ 4 μg/mL",<=0.25 μg/mL
same,MIC ATB in combination,"[3]; PMI UFR124, AF1 @ 8 μg/mL",<=0.25 μg/mL
same,MIC ATB in combination,"[3]; PMI UFR125, AF1 @ 4 μg/mL",<=0.25 μg/mL
same,MIC ATB in combination,"[3]; PMI UFR125, AF1 @ 8 μg/mL",<=0.25 μg/mL
same,MIC ATB in combination,"[3]; PMI UFR126, AF1 @ 4 μg/mL",<=0.25 μg/mL
same,MIC ATB in combination,"[3]; PMI UFR126, AF1 @ 8 μg/mL",<=0.25 μg/mL
same,MIC ATB in combination,"[3]; PMI UFR127, AF1 @ 4 μg/mL",<=0.25 μg/mL
same,MIC ATB in combination,"[3]; PMI UFR127, AF1 @ 8 μg/mL",<=0.25 μg/mL
same,MIC ATB in combination,"[3]; PMI UFR129, AF1 @ 4 μg/mL",<=0.25 μg/mL
same,MIC ATB in combination,"[3]; PMI UFR129, AF1 @ 8 μg/mL",<=0.25 μg/mL
same,MIC ATB in combination,"[3]; PMI UFR130, AF1 @ 4 μg/mL",<=0.25 μg/mL
same,MIC ATB in combination,"[3]; PMI UFR130, AF1 @ 8 μg/mL",<=0.25 μg/mL
same,MIC ATB in combination,"[3]; PMI UFR237, AF1 @ 4 μg/mL",0.5 mg/L
same,MIC ATB in combination,"[3]; PMI UFR237, AF1 @ 8 μg/mL",<=0.25 μg/mL
same,MIC,[3]; strain PMI UFR82 (CMY-2),4 mg/L
same,MIC,"[3]; strain PMI UFR120 (TEM-1, SHV-11, CTX-M-14)",≤ 0.25 mg/L
same,MIC,"[3]; strain PMI UFR121 (TEM-1, TEM-52)",16 mg/L
same,MIC,"[3]; strain PMI UFR122 (TEM-1, CTX-M-15)",1 mg/L
same,MIC,[3]; strain PMI UFR123 (CTX-M-1),2 mg/L
same,MIC,[3]; strain PMI UFR124 (CTX-M-2),2 mg/L
same,MIC,[3]; strain PMI UFR125 (CTX-M-71),2 mg/L
same,MIC,[3]; strain PMI UFR130 (CMY-2),4 mg/L
